In US4956389A, “Compounds having calcium blocking activity” (priority 1982, dated 1990):
“And” between values parts separate entries of the source, which are not always exact repeats. Identical values can stand only once. Like-named read-outs stand apart in the source and are kept apart here.

Columns and labels:
calcium entry = test: Calcium antagonistic activity (general statement); details: compared with nifedipine
[1] = Acute toxicity (Litchfield and Wilcoxon); details: rat, in vivo, male rats, read-out: toxicity DL50
Excerpt: The acute toxicity has been determined by the oral route, by the venous route in male rats according to the method of Litchfield and Wilcoxon (J. Pharm. Exp. Therap., (1949), 96, p. 99).

phosphodiesterase = test: Inhibition of the phosphodiesterase activity (method of K. G. Nair); type: biochemical
Method: The inhibition of phosphodiesterase activity of YS 035 and of papaverine has been assessed according to the method of K. G. Nair (Biochemistry, 5, 150, 1966).
It has been used a medium containing:
2.5 ml of buffer tris-HCl 0.1M pH 7.4;
50 μl CAMP "Sigma" (1 mg/ml);
5 μl Adenosin deaminase (2 mg/ml);
20 μl of alkaline phosphatase "Sigma" (2.6 mg/ml);
15 μl of phosphodiesterase (10 mg/ml).
YS 035 has been added up to a final concentration of 100 mM and Papaverine to a concentration of 10 mM.

portions of the aorta = test: Contraction of aorta portions by arachidonic acid after oral administration to rabbits (studies in vivo); set-up: species or system rabbit
Method: Both substances YS 035 and Nicardipine have been administered orally for a period of three consecutive days to rabbits in such a manner that the last administration of each substance was carried out one hour prior to killing the animals. The portions of the aorta had then been incubated either in PRP as well as in the Krebs-Henseleit liquid.

rats [2] = test: Anti-arrythmic and antiischemic effect in rats (left coronary artery tied); type: in vivo, rat
Method: The left coronary artery, when it is tied, induces in the anesthetized rats a precocious arrythmia (30 minutes) particularly ectopic beats, ventricular tachycardia (VT), ventricular fibrillation (VF) according to the methods of Selye 1960, Clark 1980 and Parratt 1982.

rats [3] = test: Antagonistic effect to biochemical disturbances during the post-oligemic period in rats; type: in vivo, rat
Method: Oligemia in rats is caused by simultaneous bilateral occlusion of the carotid arteries associated with a slight decrease (8-9 kPa) of blood pressure and is maintained for 60 minutes. After removal of the occlusion, the post-oligemic period is followed for several days. In this case, the observation is continued up to the third day, at the time during which the brain accumulation of Ca^++ ions reaches the maximum.
The substances YS 035 or Nicardipine respectively, are administered to rats, 1, 5, 18, 24, 42 and 71 hours after having removed the carotid occlusion. The rats are sacrificed after 72 hours and the tissues are rapidly removed in order to determine their content of water, calcium and potassium.

[4] = tested on: mitochondria of liver of rats; test: Inhibition of Ca2+-uptake in mitochondria of liver of rats; type: biochemical, rat; details: 250 μM
Method: The mitochondria prepared according to classical methods are diluted to a concentration of 1.5 mg/cc in a medium of incubation which has the following composition:
After a period of 15 minutes of preincubation at 20° C. there was added ^45 CaCl2 (50 n mol/mg prot.).
In a manner analogous to the preceding experiments, the concentrations determined after two minutes were called the concentration at 0 period of time. The other controls were determined after 5 minutes, after 10 minutes and after 15 minutes. For the determination of Ca^2+, the experiment was carried out in a manner analogous to the preceding experiments.
The results are reported in Table 3 as the quantity of Ca transferred per mg of protein

[5] = tested on: kidney cells in newborn hamsters; test: Inhibition of Ca2+-uptake in kidney cells in newborn hamsters; type: cell-based, hamster
Method: Cells of kidneys of newborn hamsters have been washed and then resuspended several times in concentration of 5·10^6 /cc in the medium of the following composition:
After 15 minutes of preincubation at 30° C., the reaction was made to begin by addition to the medium of ^45 CaCl2 1 mM (0.1μCi/cc). The concentrations at 0 period of time were the concentrations determined two minutes after the addition. The other controls were carried out after 5 minutes, 10 minutes, and 20 minutes. The determination of [Ca^2+ ] was carried out as in the preceding experiment.

[6] = tested on: mitochondria of liver of rats; test: Study on the Ca2+-efflux in mitochondria of liver of rats; type: biochemical, rat; details: 250 μM
Excerpt: The mitochondria of liver of rats prepared as in the preceding experiment were "charged" with Ca and subsequently, taken in a medium deprived of this ion. In the presence of an uncoupling agent or "Ruthenium Red", there is a flow of Ca^2+ ion from the mitochondria into the medium.
The results reported in Table 4 are expressed as the quantity of Ca transferred from the mitochondria per mg of protein per minute.

Q: Which “calcium antagonistic activity (in words)” value (calcium entry) does the source give for `COc1ccc(CCN(C)CCc2ccc(OC)c(OC)c2)cc1OC` [YS 035, N-methyl-N-bis-(3,4-dimethoxy-phenyl-ethyl)amine] here?
A: Its value is “strong calcium antagonistic activity, comparable to nifedipine”.

Q: And the LD50 ([1]; iv, venous route)?
A: Its LD50 is 19 mg/kg.

Q: And the LD50 ([1]; oral route)?
A: Its LD50 is 178 mg/kg.

Q: What about the “inhibiting activity on the phosphodiesterases (in words)” value (phosphodiesterase; general statement) of the same compound?
A: Its value is “completely devoid of inhibiting activity on the phosphodiesterases”.

Q: And the “inhibition of phosphodiesterase activity (in words)” value (phosphodiesterase; up to a final concentration of 100 mM)?
A: The value was “completely inactive”.

Q: What about the “Amplitude of contraction, medium Krebs, individual values” (portions of the aorta; 10 mg·Kg^-1 P.O., Krebs, controls 12 ± 2.3) of the same compound?
A: The value was -6 mm and +7 mm.

Q: And the “Amplitude of contraction, PRP, individual values” (portions of the aorta; 10 mg·Kg^-1 P.O., PRP, controls 30 ± 8.0)?
A: Its value is “+28 mm”.

Q: And the “site of action (in words)” value (portions of the aorta; aortic endothelial level, particularly PGI2)?
A: The value was “act directly on the synthesis of prostaglandin”.

Q: And the “% Death” value (rats [2]; 0.156 mg/Kg I.V.)?
A: Its value is 20%.

Q: And the “Latent Time Death” value (rats [2]; 0.156 mg/Kg I.V.)?
A: Its value is 26 min.

Q: What about the Latent time (rats [2]; 0.156 mg/Kg I.V.) of the same compound?
A: The Latent time was 22.

Q: And the No. ectopic beats (rats [2]; 0.156 mg/Kg I.V.)?
A: The No. ectopic beats was 907.

Q: What about the VF (rats [2]; 0.156 mg/Kg I.V.) of the same compound?
A: The VF was 4 s.

Q: What about the “VF (%)” value (rats [2]; 0.156 mg/Kg I.V.) of the same compound?
A: Its value is 40%.

Q: And the VT (rats [2]; 0.156 mg/Kg I.V.)?
A: The VT was 34 s.

Q: And the “% Death” value (rats [2]; 0.625 mg/Kg I.V.)?
A: The value was 0%.

Q: And the “Latent Time Death” value (rats [2]; 0.625 mg/Kg I.V.)?
A: The value was greater than 30 min.

Q: What about the Latent time (rats [2]; 0.625 mg/Kg I.V.) of the same compound?
A: Its Latent time is 30.

Q: What about the No. ectopic beats (rats [2]; 0.625 mg/Kg I.V.) of the same compound?
A: The No. ectopic beats was 646.

Q: What about the VF (rats [2]; 0.625 mg/Kg I.V.) of the same compound?
A: Its VF is 0 s.

Q: What about the “VF (%)” value (rats [2]; 0.625 mg/Kg I.V.) of the same compound?
A: The value was 0%.

Q: And the VT (rats [2]; 0.625 mg/Kg I.V.)?
A: The VT was 9 s.

Q: What about the “% Death” value (rats [2]; 1.25 mg/Kg I.V.) of the same compound?
A: The value was 0%.

Q: What about the “Latent Time Death” value (rats [2]; 1.25 mg/Kg I.V.) of the same compound?
A: The value was greater than 30 min.

Q: And the Latent time (rats [2]; 1.25 mg/Kg I.V.)?
A: The Latent time was 30.

Q: What about the No. ectopic beats (rats [2]; 1.25 mg/Kg I.V.) of the same compound?
A: Its No. ectopic beats is 684.

Q: What about the VF (rats [2]; 1.25 mg/Kg I.V.) of the same compound?
A: The VF was 0 s.

Q: What about the “VF (%)” value (rats [2]; 1.25 mg/Kg I.V.) of the same compound?
A: The value was 0%.

Q: And the VT (rats [2]; 1.25 mg/Kg I.V.)?
A: Its VT is 29 s.

Q: And the “% Death” value (rats [2]; 2.5 mg/Kg I.V.)?
A: Its value is 0%.

Q: And the “Latent Time Death” value (rats [2]; 2.5 mg/Kg I.V.)?
A: Its value is greater than 30 min.

Q: What about the Latent time (rats [2]; 2.5 mg/Kg I.V.) of the same compound?
A: The Latent time was 26.

Q: What about the No. ectopic beats (rats [2]; 2.5 mg/Kg I.V.) of the same compound?
A: The No. ectopic beats was 725.

Q: And the VF (rats [2]; 2.5 mg/Kg I.V.)?
A: The VF was 9 s.

Q: And the “VF (%)” value (rats [2]; 2.5 mg/Kg I.V.)?
A: Its value is 20%.

Q: And the VT (rats [2]; 2.5 mg/Kg I.V.)?
A: Its VT is 34 s.

Q: And the “% Death” value (rats [2]; 5 mg/Kg I.V.)?
A: The value was 0%.

Q: What about the “Latent Time Death” value (rats [2]; 5 mg/Kg I.V.) of the same compound?
A: The value was greater than 30 min.

Q: And the Latent time (rats [2]; 5 mg/Kg I.V.)?
A: The Latent time was 21.

Q: And the No. ectopic beats (rats [2]; 5 mg/Kg I.V.)?
A: The No. ectopic beats was 1287.

Q: What about the VF (rats [2]; 5 mg/Kg I.V.) of the same compound?
A: Its VF is 5 s.

Q: And the “VF (%)” value (rats [2]; 5 mg/Kg I.V.)?
A: Its value is 50%.

Q: And the VT (rats [2]; 5 mg/Kg I.V.)?
A: The VT was 62 s.

Q: And the “% Death” value (rats [2]; 10 mg/Kg I.V.)?
A: The value was 0%.

Q: What about the “Latent Time Death” value (rats [2]; 10 mg/Kg I.V.) of the same compound?
A: The value was greater than 30 min.

Q: What about the Latent time (rats [2]; 10 mg/Kg I.V.) of the same compound?
A: The Latent time was 30.

Q: What about the No. ectopic beats (rats [2]; 10 mg/Kg I.V.) of the same compound?
A: Its No. ectopic beats is 474.

Q: And the VF (rats [2]; 10 mg/Kg I.V.)?
A: The VF was 0 s.

Q: What about the “VF (%)” value (rats [2]; 10 mg/Kg I.V.) of the same compound?
A: Its value is 0%.

Q: And the VT (rats [2]; 10 mg/Kg I.V.)?
A: The VT was 9 s.

Q: What about the “% Death” value (rats [2]; 20 mg/Kg I.V.) of the same compound?
A: The value was 0%.

Q: What about the “Latent Time Death” value (rats [2]; 20 mg/Kg I.V.) of the same compound?
A: The value was greater than 30 min.

Q: And the Latent time (rats [2]; 20 mg/Kg I.V.)?
A: The Latent time was 20.

Q: And the No. ectopic beats (rats [2]; 20 mg/Kg I.V.)?
A: Its No. ectopic beats is 777.

Q: And the VF (rats [2]; 20 mg/Kg I.V.)?
A: Its VF is 10 s.

Q: And the “VF (%)” value (rats [2]; 20 mg/Kg I.V.)?
A: Its value is 50%.

Q: And the VT (rats [2]; 20 mg/Kg I.V.)?
A: Its VT is 22 s.

Q: And the “dose-effect relationship (in words)” value (rats [2]; above 10 mg/kg, endovenous)?
A: Its value is “there is a regression of the results”.

Q: And the “onset of VF, VT and death (in words)” value (rats [2]; endovenous, between 0.625 and 10 mg/kg)?
A: Its value is “prevents the onset of the most serious arrythmia such as VF and VT and the death”.

Q: What about the “Cerebral concentration, Ca++” value (rats [3]; 3 mg·Kg^-1 P.O. 7×, 72 h, post-oligemic controls 28.2 ± 3.22) of the same compound?
A: The value was 10.7 ± 2.46 mmol·Kg^-1 of dry substance.

Q: What about the “Cerebral concentration, H2O” value (rats [3]; 3 mg·Kg^-1 P.O. 7×, 72 h, post-oligemic controls 80.1 ± 0.37) of the same compound?
A: Its value is 79.0 ± 0.44%.

Q: And the “Cerebral concentration, K+” value (rats [3]; 3 mg·Kg^-1 P.O. 7×, 72 h, post-oligemic controls 366.2 ± 12.58)?
A: Its value is 420.0 ± 11.85 mmol·Kg^-1 of dry substance.

Q: What about the “intracellular accumulation of Ca++ ions (in words)” value (rats [3]; rat, in vivo) of the same compound?
A: Its value is “reduce substantially”.

Q: And the “seriousness of the cerebral edema (in words)” value (rats [3]; rat, in vivo)?
A: Its value is “capable of reducing the seriousness of the cerebral edema”.

Q: And the “Ca2+-uptake” value ([4]; 20° C., control 14.3)?
A: Its value is 11.0 n g ions/mg prot.

Q: And the “inhibitory activity on the uptake of Ca (in words)” value ([4]; compared with nifedipine)?
A: The value was “slightly inferior to the activity of nifedipine”.

Q: And the “Ca2+-uptake” value ([5]; 250 μM, 30° C., control 11.9)?
A: Its value is 7.5 n g ions/mg prot/15'.

Q: What about the “inhibitory action on the uptake of Ca (in words)” value ([5]; 250 μM, compared with nifedipine) of the same compound?
A: Its value is “superior to the activity of nifedipine”.

Q: And the percent change in Ca2+-uptake versus control at 250 µM ([5]; Mesocricetus auratus, 0.25 h, 15 min)?
A: Its percent change in Ca2+-uptake versus control at 250 µM is -36.9%.

Q: What about the “uncoupling action (in words)” value [6] of the same compound?
A: Its value is “does not exhibit this action”.

Q: And the “Ca2+-efflux induced by Ruthenium red” value ([6]; control 0.7)?
A: The value was 0.6 n g ions/min. mg/prot.

Q: And the “Ca2+-efflux induced by uncoupling agent” value ([6]; control 8.3)?
A: Its value is 5.4 n g ions/min. mg/prot.
